Key:
rats [1] = assay: Locomotor activity test; assay type: in vivo, Male Sprague Dawley rats
Procedure: (§1) Male Sprague Dawley rats 200-300 g (Charles River, Margate, U.K.) were housed in group of five per cage under a 12 h light/dark cycle with food and water available ad libitum. Each experiment was carried out with groups of at minimum 7 rats. All procedures in this study were performed in accordance with the Home Office Animals (Scientific Procedures) Act 1986 and accordingly with our Project License, after the experiment, animals were sacrificed by schedule 1 method.
The spontaneous locomotor activity of rats in a novel environment was monitored for 30 min in a 35×20 cm Perspex chamber. The cage was equipped with two series photocells located at 2 and 15 cm above the floor (San Diego Instruments, CA, USA). To measure drug-induced decrease locomotion such as morphine and gabapentin, at a pre-defined time post drug administration, each animal was placed in the centre of the cage. To measure drug-induced increase in locomotion such as phencyclidine (PCP) rats were placed in the cage at least 30 min before recording. total activity (ambulation and rearing) was monitored every 5 min for 30 min.
(§2) In the locomotor activity task, total counts are the sum of horizontal and vertical movements (photo beam breaks) in 30 minutes recording. For PCP vertical and horizontal activity are analysed separately. Data were expressed as the arithmetic mean ±SEM and analysed by ANOVA. In the beam walking test, the time to cross the beam (seconds) and the number of foot slips were expressed as mean ±SEM and analysed by ANOVA and Mann Whitney U test, respectively.

rats [2] = assay: Beam walking test; assay type: in vivo, Male Sprague Dawley rats
Procedure: as §1
The Beam walking apparatus consists of a 1.5 m long beam with a 2.5×2.5 cm square cross section, elevated 75 cm above the floor. The test was performed in dim light conditions (18 lux). A light source (520 lux) was placed at the start-end of the beam while a dark box at the other side (Feeney D M et al, Amphetamine, Haloperidol, and experience interact to affect rate of recovery after motor cortex injury, Science 217, 1982). Rats were habituated to the dim light condition for at least 1 hour before the beginning of the training sessions. Rats were trained to cross the beam over 2 days, twice a day. The first day, rodents were trained to cross starting from last quarter and half of the beam until the dark box, in the first and second session, respectively. The following day rodents were trained to cross the entire length of the beam twice. At least 2 hours were left between each daily session. On the day of test a baseline recording was registered before compound administration and rats were selected based on their ability to cross the beam with no major impairments. Therefore, only rodents that crossed the beam in less than 10 seconds and showing two or less foot slips were used for the assessment of drug-induced motor impairments. Then rats were tested for their ability to cross the beam at various time points after drug injection. The time taken to cross and the number of foot slips produced while a rat was crossing the beam were counted. […] No movement or freezing behaviours were also scored with the maximum value.
as §2

[3] = clinical literature; cited from earlier work
[4] = 1 and 10 mg/kg ip, 1 hr post injection

For `c1ccc(C2(N3CCCCC3)CCCCC2)cc1` [PCP, phencyclidine], the observed signs (rats [1]; 10 mg/kg ip) was “signs of ataxia”, the “vertical activity (rearing)” value (rats [1]; 10 mg/kg, standard protocol for drug-induced decrease in movement, vehicle 186±17, p<0.01, data not shown) was 30±9 and the “total activity (vertical+horizontal) vs vehicle-treated group” value (rats [1]; [4]) was “did not change significantly”. The vertical movement (rats [1]; [4]) was “only the lower dose significantly increased the vertical movement”, the horizontal activity (rats [1]; 1 and 10 mg/kg ip, 1 hr post injection, p<0.05) was “increased the horizontal activity in a dose dependent manner” and the “number of foot slips, effect” value (rats [2]; 1 mg/kg ip, 2 hours post dose, p<0.05) was “slight but significant increase”. For the same compound, the “rodents that could not be placed on the beam (lack of paw coordination)” value (rats [2]; 10 mg/kg ip, 30 min post dose) was 100%, the “rodents that could not be placed on the beam (lack of paw coordination)” value (rats [2]; 10 mg/kg ip, 1 hour post dose) was 100% and the “animals that did cross the beam” value (rats [2]; 10 mg/kg ip, 2 hours post dose) was 80%. For the same compound, the “number of foot slips” value (rats [2]; 10 mg/kg ip, 2 hours post dose, animals that crossed) was at least 5, the “time taken to cross the beam vs controls” value (rats [2]; 10 mg/kg ip, 2 hours post dose, p<0.01) was “significantly different from controls” and the recovery (rats [2]; 10 mg/kg ip, 4 hrs post dose) was “almost all rats recovered”. The “time taken to cross the beam, effect across doses” value (rats [2]; 0.1-1-10 mg/kg ip) was “increased the time taken to cross the beam at the higher dose only”, the “number of foot slips, effect” value (rats [2]; lower dose (0.1 mg/kg ip)) was “no effect” and the “adverse events in humans” value [3] was “induce ataxia”.

With `NCC1(CC(=O)O)CCCCC1` [Gabapentin] the “decrease in locomotor activity (of vehicle-treated group)” value (rats [1]; 100 mg/kg PO (highest dose), one hour post dose) was 27%, the “locomotor activity, effect” value (rats [1]; 100 mg/kg in rats) was “small (albeit statistically significant) decrease” and the “locomotor activity, effect across doses” value (rats [1]; 10, 30 and 100 mg/kg PO, one hour post dose) was “decreased significantly the locomotor activity of rats at the highest dose only”. For the same compound, the “total counts in 30 min” value (rats [1]; gabapentin highest dose 100 mg/kg PO, one hour post dose) was 262±25 counts, the “number of foot slips, effect” value (rats [2]; 100 mg/kg in rats) was “robust increase” and the “time to cross the beam, effect” value (rats [2]; 30, 100 and 300 mg/kg PO, up to 6 hrs, p<0.05) was “only at 3 and 4 hour post administration the highest dose significantly increase the time to cross”. For the same compound, the “duration of effect on foot slips (lasting till)” value (rats [2]; PO) was 4 h, the “time of peak effect on foot slips” value (rats [2]; PO) was 2 h and the “lowest dose increasing number of foot slips” value (rats [2]; PO, 30, 100 and 300 mg/kg tested, dose dependent) was 100 mg/kg. For the same compound, the “rats that fell off the beam” value (rats [2]; PO, 2 hours post dose) was 25%, the “rats that fell off the beam” value (rats [2]; PO, 3 hours post dose) was 25% and the “number of foot slips” value (rats [2]; PO, dose not stated, 1 hour post dose, water treated 0.6±0.4) was 1.5±0.5. The “number of foot slips (peak effect)” value (rats [2]; PO, dose not stated, 2 hours post dose, vehicle 0.2±0.2, p<0.01) was 2.9±0.5 and the “adverse events in humans” value [3] was “dizziness and somnolence”.

With `CN1CC[C@]23c4c5ccc(O)c4O[C@H]2[C@@H](O)C=C[C@H]3[C@H]1C5.O=S(=O)(O)O` [Morphine sulphate] the “total counts (horizontal + vertical) in 30 min” value (rats [1]; 10 mg/kg SC, 30 min post dose, vehicle 424±23, p<0.01) was 28±6 counts, the “total counts in 30 min” value (rats [1]; morphine 3 mg/kg, comparator in gabapentin study) was 138±26 counts and the “locomotion in the beam walking” value (rats [2]; 3 mg/kg SC, any time point (30 min, 1, 2, 3 h)) was “did not modify the locomotion”. The “time to cross the beam” value (rats [2]; 10 mg/kg SC, 30 min post dose, controls 4.1±0.7, significant) was 12.6 ± 0.7 s, the “number of foot slips” value (rats [2]; 10 mg/kg SC, 30 minutes post dose, vehicle 0.1±0.1, not statistically different) was 1.0±0.6 and the “number of foot slips” value (rats [2]; 10 mg/kg SC, 1 hr post dose, vehicle 0.1±0.1, not statistically different) was 1.0±0.6. For the same compound, the “rats falling off the beam” value (rats [2]; 3 and 10 mg/kg SC) was “No rats fell off the beam”, the “MED (minimal effective dose) in beam walking” value (rats [2]; SC) was 10 mg/kg and the “adverse events in humans” value [3] was “somnolence, sedation and addiction”.

Source: US20080294071A1, “Assay Method” (priority 2004, published 2008)
